Results reported in ChEMBL document CHEMBL5584293, “Discovery and evaluation of novel spiroheterocyclic protective agents via a SIRT1 upregulation mechanism in cisplatin-induced premature ovarian failure” (Bioorg Med Chem, 2024).
Calls of active or inactive are those of the source. The calls are words filed in the database; no cut-off is given here.

How the values were obtained:
KGN [1] = assay: Protective effect against cisplatin-induced injury in human KGN cells assessed as cell survival at 5 uM incubated for 48 hrs by MTT assay; type: functional, cell-based
[2] = Cytotoxicity against human PDL cells assessed as cell viability at 50 uM incubated for 48 hrs by MTT assay; type: toxicity, cell-based
NRK = assay: Cytotoxicity against rat NRK cells assessed as cell viability at 50 uM incubated for 48 hrs by MTT assay; type: toxicity, cell-based
[3] = Cytotoxicity against human MIHA cells assessed as cell viability at 50 uM incubated for 48 hrs by MTT assay; type: toxicity, cell-based
KGN [4] = assay: Protective effect against cisplatin-induced injury in human KGN cells assessed as cell survival at 25 to 50 uM incubated for 48 hrs by MTT assay; type: functional, cell-based; settings: dose 25-50 µM

## CC1N[C@@]2(C(=O)c3cccc4cccc2c34)[C@@]2(CCC/C(=C\c3ccc(Cl)c(Br)c3)C2=O)[C@H]1c1ccc(Cl)c(Br)c1 (stereo not given in full)
KGN [1]
  Activity: inactive

## CC1N[C@@]2(C(=O)c3cccc4cccc2c34)[C@@]2(CCC/C(=C\c3ccc(Br)cc3)C2=O)[C@H]1c1ccc(Br)cc1 (stereo not given in full)
KGN [1]
  Activity: Active

## NC(=O)CC1N[C@@]2(C(=O)c3cccc4cccc2c34)[C@@]2(CCC/C(=C\c3ccccc3)C2=O)[C@H]1c1ccccc1 (stereo not given in full)
KGN [1]
  Activity: Active

## CC1N[C@@]2(C(=O)c3cccc4cccc2c34)[C@@]2(CCC/C(=C\c3ccc(Br)o3)C2=O)[C@H]1c1ccc(Br)o1 (stereo not given in full)
KGN [1]
  Activity: Active

## CCOc1ccc(/C=C2\CCC[C@@]3(C2=O)[C@@H](c2ccc(OCC)c(OCC)c2)C(C)N[C@@]32C(=O)c3cccc4cccc2c34)cc1OCC (stereo not given in full)
KGN [1]
  Activity: inactive

## CN1C[C@H](c2ccccc2)[C@]2(CCC/C(=C\c3ccccc3)C2=O)[C@]12C(=O)Nc1ccccc12
[2]
  Activity: Non-Toxic
NRK
  Activity: Non-Toxic
[3]
  Activity: Non-Toxic

## CC1N[C@@]2(C(=O)c3cccc4cccc2c34)[C@@]2(CCC/C(=C\c3ccc4ccccc4c3)C2=O)[C@H]1c1ccc2ccccc2c1 (stereo not given in full)
KGN [1]
  Activity: Active

## CC1N[C@@]2(C(=O)c3cccc4cccc2c34)[C@@]2(CCC/C(=C\c3ccccc3Br)C2=O)[C@H]1c1ccccc1Br (stereo not given in full)
KGN [1]
  Activity: Active

## CC1N[C@@]2(C(=O)c3cccc4cccc2c34)[C@@]2(CCC/C(=C\c3ccccc3Cl)C2=O)[C@H]1c1ccccc1Cl (stereo not given in full)
KGN [1]
  Activity: Active

## CC1N[C@@]2(C(=O)c3cccc4cccc2c34)[C@@]2(CCC/C(=C\c3cccc(O)c3)C2=O)[C@H]1c1cccc(O)c1 (stereo not given in full)
KGN [1]
  Activity: inactive

## CN1C[C@H](c2ccccc2)[C@]2(CN(C(=O)OC(C)(C)C)C/C(=C\c3ccccc3)C2=O)[C@]12C(=O)Nc1ccc(F)cc12
[2]
  Activity: Non-Toxic
NRK
  Activity: Non-Toxic
[3]
  Activity: Non-Toxic

## COc1cc(/C=C2\CCC[C@@]3(C2=O)[C@@H](c2cc(OC)cc(OC)c2)C(C)N[C@@]32C(=O)c3cccc4cccc2c34)cc(OC)c1 (stereo not given in full)
KGN [4]
  Activity: Active
KGN [1]
  Activity: inactive

## CC1N[C@@]2(C(=O)c3cccc4cccc2c34)[C@@]2(CCC/C(=C\c3ccc(O)cc3)C2=O)[C@H]1c1ccc(O)cc1 (stereo not given in full)
KGN [1]
  Activity: inactive

## O=C1c2cccc3cccc(c23)[C@]12NC(Cc1ccc(O)cc1)[C@H](c1ccccc1)[C@]21CCC/C(=C\c2ccccc2)C1=O (stereo not given in full)
KGN [1]
  Activity: inactive

## O=C1c2cccc3cccc(c23)[C@]12NC(Cc1c[nH]cn1)[C@H](c1ccccc1)[C@]21CCC/C(=C\c2ccccc2)C1=O (stereo not given in full)
KGN [1]
  Activity: inactive

## CC(C)C1N[C@@]2(C(=O)c3cccc4cccc2c34)[C@@]2(CCC/C(=C\c3ccccc3)C2=O)[C@H]1c1ccccc1 (stereo not given in full)
KGN [1]
  Activity: inactive

## CC1N[C@@]2(C(=O)c3cccc4cccc2c34)[C@@]2(CCC/C(=C\N3CCOCC3)C2=O)[C@H]1N1CCOCC1 (stereo not given in full)
KGN [1]
  Activity: Active

## CN1C[C@H](c2ccccc2)[C@]2(COC/C(=C\c3ccccc3)C2=O)[C@]12C(=O)Nc1ccccc12
[2]
  Activity: Non-Toxic
NRK
  Activity: Non-Toxic
[3]
  Activity: Non-Toxic

## CC1N[C@@]2(C(=O)c3cccc4cccc2c34)[C@@]2(CCC/C(=C\c3ccc(Cl)cc3Cl)C2=O)[C@H]1c1ccc(Cl)cc1Cl (stereo not given in full)
KGN [1]
  Activity: inactive

## CC1N[C@@]2(C(=O)c3cccc4cccc2c34)[C@@]2(CCC/C(=C\c3cc(F)cc(F)c3)C2=O)[C@H]1c1cc(F)cc(F)c1 (stereo not given in full)
KGN [1]
  Activity: inactive

## CC1N[C@@]2(C(=O)c3cccc4cccc2c34)[C@@]2(CCC/C(=C\c3ccc(F)cc3)C2=O)[C@H]1c1ccc(F)cc1 (stereo not given in full)
KGN [4]
  Activity: Active
KGN [1]
  Activity: Active

## CC(C)CC1N[C@@]2(C(=O)c3cccc4cccc2c34)[C@@]2(CCC/C(=C\c3ccccc3)C2=O)[C@H]1c1ccccc1 (stereo not given in full)
KGN [1]
  Activity: inactive

## CN1C[C@H](c2ccccc2)C2(CN(C(=O)OC(C)(C)C)C/C(=C\c3ccccc3)C2=O)[C@]12C(=O)c1cccc3cccc2c13 (single isomer, unassigned)
[2]
  Activity: Non-Toxic
NRK
  Activity: Non-Toxic
[3]
  Activity: Non-Toxic

## O=C1c2cccc3cccc(c23)[C@]12NC(Cc1c[nH]c3ccccc13)[C@H](c1ccccc1)[C@]21CCC/C(=C\c2ccccc2)C1=O (stereo not given in full)
KGN [1]
  Activity: Active

## CC1N[C@@]2(C(=O)c3cccc4cccc2c34)[C@@]2(CCC/C(=C\c3ccc(O)c(O)c3)C2=O)[C@H]1c1ccc(O)c(O)c1 (stereo not given in full)
KGN [1]
  Activity: inactive

## CC1N[C@@]2(C(=O)c3cccc4cccc2c34)[C@@]2(CCC/C(=C\c3ccccc3F)C2=O)[C@H]1c1ccccc1F (stereo not given in full)
KGN [4]
  Activity: Active
KGN [1]
  Activity: Active

## N=C(N)NCCCC1N[C@@]2(C(=O)c3cccc4cccc2c34)[C@@]2(CCC/C(=C\c3ccccc3)C2=O)[C@H]1c1ccccc1 (stereo not given in full)
KGN [1]
  Activity: inactive

## CSCCC1N[C@@]2(C(=O)c3cccc4cccc2c34)[C@@]2(CCC/C(=C\c3ccccc3)C2=O)[C@H]1c1ccccc1 (stereo not given in full)
KGN [1]
  Activity: inactive

## CC1N[C@@]2(C(=O)c3cccc4cccc2c34)[C@@]2(CCC/C(=C\c3ccc(Cl)c(Cl)c3)C2=O)[C@H]1c1ccc(Cl)c(Cl)c1 (stereo not given in full)
KGN [1]
  Activity: inactive

## CCOc1ccc(/C=C2\CCC[C@@]3(C2=O)[C@@H](c2ccc(OCC)cc2)C(C)N[C@@]32C(=O)c3cccc4cccc2c34)cc1 (stereo not given in full)
KGN [1]
  Activity: inactive

## O=C1c2cccc3cccc(c23)[C@]12NC(CO)[C@H](c1ccccc1)[C@]21CCC/C(=C\c2ccccc2)C1=O (stereo not given in full)
KGN [1]
  Activity: Active

## CN1C[C@H](c2ccccc2)[C@H](C(=O)/C=C/c2ccccc2)[C@]12C(=O)Nc1ccc(F)cc12
[2]
  Activity: Toxic
NRK
  Activity: Toxic
[3]
  Activity: Toxic

## COc1ccccc1/C=C1\CCC[C@@]2(C1=O)[C@@H](c1ccccc1OC)C(C)N[C@@]21C(=O)c2cccc3cccc1c23 (stereo not given in full)
KGN [1]
  Activity: inactive

## CN1C[C@H](c2ccccc2)[C@]2(CCC/C(=C\c3ccccc3)C2=O)[C@]12C(=O)Nc1ccc(F)cc12
[2]
  Activity: Non-Toxic
NRK
  Activity: Non-Toxic
[3]
  Activity: Non-Toxic

## NC(=O)CCC1N[C@@]2(C(=O)c3cccc4cccc2c34)[C@@]2(CCC/C(=C\c3ccccc3)C2=O)[C@H]1c1ccccc1 (stereo not given in full)
KGN [1]
  Activity: inactive

## CN1C[C@H](c2ccccc2)[C@]2(CCC/C(=C\c3ccccc3)C2=O)[C@]12C(=O)Nc1ccc(Cl)cc12
[2]
  Activity: Non-Toxic
NRK
  Activity: Non-Toxic
[3]
  Activity: Non-Toxic

## O=C(O)CCC1N[C@@]2(C(=O)c3cccc4cccc2c34)[C@@]2(CCC/C(=C\c3ccccc3)C2=O)[C@H]1c1ccccc1 (stereo not given in full)
KGN [1]
  Activity: inactive

## CN1C[C@H](c2ccccc2)[C@H](C(=O)/C=C/c2ccccc2)[C@]12C(=O)Nc1ccccc12
[2]
  Activity: Toxic
NRK
  Activity: Toxic
[3]
  Activity: Toxic

## CC1N[C@@]2(C(=O)c3cccc4cccc2c34)[C@@]2(CCC/C(=C\c3cc(Br)cs3)C2=O)[C@H]1c1cc(Br)cs1 (stereo not given in full)
KGN [1]
  Activity: Active

## CC(O)C1N[C@@]2(C(=O)c3cccc4cccc2c34)[C@@]2(CCC/C(=C\c3ccccc3)C2=O)[C@H]1c1ccccc1 (stereo not given in full)
KGN [1]
  Activity: Active

## O=C1c2cccc3cccc(c23)[C@]12N1CCC(O)C1[C@H](c1ccccc1)[C@]21CCC/C(=C\c2ccccc2)C1=O (stereo not given in full)
KGN [1]
  Activity: Active

## O=C1c2cccc3cccc(c23)[C@]12NC(Cc1ccccc1)[C@H](c1ccccc1)[C@]21CCC/C(=C\c2ccccc2)C1=O (stereo not given in full)
KGN [1]
  Activity: Active

## CN1C[C@H](c2ccccc2)[C@]2(CN(C(=O)OC(C)(C)C)C/C(=C\c3ccccc3)C2=O)[C@]12C(=O)Nc1ccccc12
[2]
  Activity: Non-Toxic
NRK
  Activity: Non-Toxic
[3]
  Activity: Non-Toxic

## CN1C[C@H](c2ccccc2)[C@]2(COC/C(=C\c3ccccc3)C2=O)[C@]12C(=O)Nc1ccc(Cl)cc12
[2]
  Activity: Non-Toxic
NRK
  Activity: Non-Toxic
[3]
  Activity: Non-Toxic

## Cc1ccc(/C=C2\CCC[C@@]3(C2=O)[C@@H](c2ccc(C)s2)C(C)N[C@@]32C(=O)c3cccc4cccc2c34)s1 (stereo not given in full)
KGN [1]
  Activity: Active

## CN1C[C@H](c2ccccc2)[C@H](C(=O)/C=C/c2ccccc2)[C@]12C(=O)Nc1ccc(Cl)cc12
[2]
  Activity: Toxic
NRK
  Activity: Toxic
[3]
  Activity: Toxic

## CC1N[C@@]2(C(=O)c3cccc4cccc2c34)[C@@]2(CCC/C(=C\c3ccc(Cl)cc3)C2=O)[C@H]1c1ccc(Cl)cc1 (stereo not given in full)
KGN [1]
  Activity: Active

## CCC(C)C1N[C@@]2(C(=O)c3cccc4cccc2c34)[C@@]2(CCC/C(=C\c3ccccc3)C2=O)[C@H]1c1ccccc1 (stereo not given in full)
KGN [1]
  Activity: inactive

## CN1C[C@H](c2ccccc2)[C@]2(COC/C(=C\c3ccccc3)C2=O)[C@]12C(=O)Nc1ccc(F)cc12
[2]
  Activity: Non-Toxic
NRK
  Activity: Non-Toxic
[3]
  Activity: Non-Toxic

## COc1cc(/C=C2\CCC[C@@]3(C2=O)[C@@H](c2ccc(O)c(OC)c2)C(C)N[C@@]32C(=O)c3cccc4cccc2c34)ccc1O (stereo not given in full)
KGN [1]
  Activity: inactive

## COc1ccc(/C=C2\CCC[C@@]3(C2=O)[C@@H](c2ccc(OC)cc2)C(C)N[C@@]32C(=O)c3cccc4cccc2c34)cc1 (stereo not given in full)
KGN [4]
  Activity: Active
KGN [1]
  Activity: inactive

## CN1C[C@H](c2ccccc2)[C@]2(CN(C(=O)OC(C)(C)C)C/C(=C\c3ccccc3)C2=O)[C@]12C(=O)Nc1ccc(Cl)cc12
[2]
  Activity: Non-Toxic
NRK
  Activity: Non-Toxic
[3]
  Activity: Non-Toxic

## COc1ccc(/C=C2\CCC[C@@]3(C2=O)[C@@H](c2ccc(OC)c(O)c2)C(C)N[C@@]32C(=O)c3cccc4cccc2c34)cc1O (stereo not given in full)
KGN [1]
  Activity: inactive

## COc1ccc(/C=C2\CCC[C@@]3(C2=O)[C@@H](c2ccc(OC)cc2OC)C(C)N[C@@]32C(=O)c3cccc4cccc2c34)c(OC)c1 (stereo not given in full)
KGN [1]
  Activity: inactive

## CC1N[C@@]2(C(=O)c3cccc4cccc2c34)[C@@]2(CCC/C(=C\c3ccccc3C(F)(F)F)C2=O)[C@H]1c1ccccc1C(F)(F)F (stereo not given in full)
KGN [1]
  Activity: inactive
